Assay results from patent US8748445B2, “Methods for treating glioma” (The UAB Research Foundation, priority 2004, dated 2014).
“Also recorded” adds a separate entry of the source.

Tests used:
glioma cells [1] = assay: rescue from (S)-4-CPG-induced cell death by caspase inhibitor; assay type: cell-based, human; settings: Boc-D-FMK 100 μM; (S)-4-CPG 0.25 mM (FIG. 5D)
Procedure: Because an accumulation of ROS can lead to apoptotic cell death, the ability of system Xc inhibitors to induce apoptosis in glioma cells was examined. Exposure of D-54MG glioma cells to 1 mM (S)-4-CPG for 3 days caused 17% of the cell population to be positive for chromosomal DNA fragmentation, a classic manifestation of apoptosis (FIG. 5B). Often apoptosis is dependent on caspase activities, so it was determined whether the system Xc inhibitors induce activated caspase-3, which is the convergent enzyme in the caspase-dependent signaling cascade. […] In the continued presence of 0.5 mM (S)-4-CPG over a 5 d period, 60% of glioma cells died (FIG. 5E). With 1 mM sulfasalazine, 90% of cells died over the 5 d incubation (FIG. 5E).

[2] = system: glioma cell lines (D-54MG, U-87MG, U-251MG and STTG1) and a primary glioma culture (GBM62); assay: growth curves of glioma cells over 5 days; assay type: cell-based, human
Procedure: To examine whether the depletion of glutathione via inhibition of cystine uptake by system Xc affects the growth of glioma cells, growth curves for 4 glioma cell lines (D-54MG, U-87MG, U-251MG and STTG1) and a primary glioma culture (GBM62) were established.
In the presence of 0.25 mM (S)-4-CPG, growth of D-54MG cells indeed recovered by the addition of fourfold excess of cystine (FIG. 3E), but not with glutamate (FIG. 3D), the second substrate for system Xc.

glioma cells [3] = assay: cell death by flow cytometry using the Live/Dead assay kit; assay type: cell-based, human
Procedure: (§1) Because an accumulation of ROS can lead to apoptotic cell death, the ability of system Xc inhibitors to induce apoptosis in glioma cells was examined. […] Often apoptosis is dependent on caspase activities, so it was determined whether the system Xc inhibitors induce activated caspase-3, which is the convergent enzyme in the caspase-dependent signaling cascade. […] With 1 mM sulfasalazine, 90% of cells died over the 5 d incubation (FIG. 5E).

D-54MG glioma cells [4] = assay: BrdU incorporation, ELISA-based assay; assay type: cell-based, human
Procedure: (§2) BrdU incorporation was measured using an ELISA-based assay. D-54MG cells were grown in the presence or absence of inhibitors for 24 hours and pulsed for 2 hours with BrdU. The cells were cultured for an additional 48 hours and the amount of incorporated BrdU was measured using alkaline phosphatase conjugated to anti-BrdU antibodies. […] The inhibition of DNA synthesis was also seen in immunocytochemical studies.

glioma cells [5] = assay: total intracellular glutathione content in glioma cells; assay type: cell-based, human
Procedure: To determine if limiting cystine uptake via system Xc reduces the total intracellular glutathione content (GSH and glutathione disulfide), intracellular glutathione concentrations were determined in the presence and absence of sulfasalazine.

caspase-3 = assay: activated caspase-3 by Western blot analysis; assay type: cell-based, human; settings: 0.5 mM; D-54MG cells (FIG. 5C)
Procedure: as §1

[6] = system: primary astrocyte cultures; assay: growth of primary astrocyte cultures; assay type: cell-based; settings: (S)-4-CPG 0.25 mM and 0.5 mM (FIG. 3C); sulfasalazine data not shown
D-54MG glioma cells [7] = assay: BrdU incorporation, immunocytochemical studies; assay type: cell-based, human; settings: DAPI co-staining (FIG. 4B)
Procedure: as §2

D-54MG glioma cells [8] = assay: chromosomal DNA fragmentation (apoptosis) by flow cytometry; assay type: cell-based, human; settings: 1 mM for 3 days; D-54MG (FIG. 5B)
Procedure: as §1

glioma cells [9] = assay: cell cycle: total DNA content by flow cytometry (propidium iodide); assay type: cell-based, human; settings: 0.5 mM (FIG. 4D)
Procedure: To test whether inhibition of cystine uptake affects a specific stage of the cell cycle, changes in total DNA content were measured using flow cytometry following treatment with 0.5 mM (S)-4-CPG and 0.5 mM sulfasalazine. Cells were fixed with para-formaldehyde and stained with the nuclear marker propidium iodide after incubation with drugs.

[10] = system: cortical neuronal cultures; assay: survival of cortical neuronal cultures; assay type: cell-based; settings: (S)-4-CPG 0.25 mM and 0.5 mM (FIG. 3C); sulfasalazine data not shown
system Xc = target: T1, system Xc (Homo sapiens, UniProt Q9UPY5); assay: 35S-labeled cystine uptake in glioma lines and primary glioma culture; assay type: cell-based; settings: 5 mM L glutamate; data not shown
T1 construct: reduced ^35S-labeled cystine uptake by 60-80% in glioma lines (d-54MG, U-87MG and U-251MG) and a primary glioma culture (GBM62); endogenous in cells; host or cells: human glioma cell lines D-54MG, U-87MG, U-251MG and primary glioma culture GBM62
T1 sequence (Q9UPY5 1-501): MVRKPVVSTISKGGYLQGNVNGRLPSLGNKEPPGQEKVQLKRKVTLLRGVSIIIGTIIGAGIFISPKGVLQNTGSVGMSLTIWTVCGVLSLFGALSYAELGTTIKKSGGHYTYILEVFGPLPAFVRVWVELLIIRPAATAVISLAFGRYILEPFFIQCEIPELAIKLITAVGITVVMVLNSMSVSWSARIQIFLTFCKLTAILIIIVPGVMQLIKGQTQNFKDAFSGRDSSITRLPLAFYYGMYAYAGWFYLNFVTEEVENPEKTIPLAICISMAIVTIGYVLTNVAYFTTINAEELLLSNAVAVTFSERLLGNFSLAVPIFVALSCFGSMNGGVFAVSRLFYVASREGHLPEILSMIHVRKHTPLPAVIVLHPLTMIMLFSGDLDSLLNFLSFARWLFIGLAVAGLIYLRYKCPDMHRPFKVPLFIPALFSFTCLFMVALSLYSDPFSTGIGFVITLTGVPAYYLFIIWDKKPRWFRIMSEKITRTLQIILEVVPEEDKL
T1 sequence (P08195 1-529 partner): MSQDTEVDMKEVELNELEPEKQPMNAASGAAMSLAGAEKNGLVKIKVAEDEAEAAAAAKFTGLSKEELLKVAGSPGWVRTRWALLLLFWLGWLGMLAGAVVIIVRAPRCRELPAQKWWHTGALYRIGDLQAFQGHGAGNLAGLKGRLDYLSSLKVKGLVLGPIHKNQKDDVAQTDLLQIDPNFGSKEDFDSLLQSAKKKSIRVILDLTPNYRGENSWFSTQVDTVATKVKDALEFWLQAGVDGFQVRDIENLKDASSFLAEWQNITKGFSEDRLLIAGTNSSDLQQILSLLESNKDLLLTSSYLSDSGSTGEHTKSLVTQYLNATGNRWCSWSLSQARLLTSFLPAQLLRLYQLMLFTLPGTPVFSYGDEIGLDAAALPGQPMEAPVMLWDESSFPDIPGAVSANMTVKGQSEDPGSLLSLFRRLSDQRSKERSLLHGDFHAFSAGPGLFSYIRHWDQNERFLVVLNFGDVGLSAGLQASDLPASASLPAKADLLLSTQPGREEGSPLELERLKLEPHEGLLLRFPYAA
Text: System Xc is a glutamate-cystine exchanger and can therefore be inhibited if the outward directed gradient for glutamate is eliminated by exposure to high concentrations of extracellular glutamate. The principal hypothesis in this study is that system Xc serves as a pipeline for cellular cystine uptake, with glutamate release being an obligatory by-product. Cystine uptake is the rate-limiting step for the synthesis of GSH, which is the main intracellular antioxidant that protects cells from oxidative stress and resulting reactive oxygen species (ROS) (Jefferies et al., 2003).

## COC(=O)CC(NC(=O)OC(C)(C)C)C(=O)CF [Boc-D-FMK, Boc Asp-fluoromethylketone]
Glioma cells [1]
  rescue from cell death induced by (S)-4-CPG: a significant percentage of cells were rescued from cell death

## vitamin E
[2]; in the presence of (S)-4-CPG (FIG. 5A)
  growth of D-54MG glioma cells with free radical scavenger: partially restored

## N[C@@H](CSSC[C@H](N)C(=O)O)C(=O)O [cystine]
Glioma cells [3]; 0.5 mM (S)-4-CPG with 1 mM cystine (FIG. 5E)
  prevention of cell death induced by (S)-4-CPG: completely prevented
D-54MG glioma cells [4]; inhibition caused by 0.5 mM (S)-4-CPG and 0.5 mM sulfasalazine (FIG. 4C)
  reversal of inhibition of BrdU incorporation by exogenous cystine: able to reverse the inhibition of BrdU incorporation
[2]; 0.25 mM (S)-4-CPG plus fourfold excess of cystine (FIG. 3E)
  growth of D-54MG cells in the presence of (S)-4-CPG: recovered

## CCOC(=O)CNC(=O)[C@H](CS)NC(=O)CC[C@H](N)C(=O)O [glutathione ethyl ester]
Glioma cells [5]; sulfasalazine (0.4 mM) treated D-54MG glioma cells (FIG. 6A)
  intracellular glutathione levels on coincubation: replenished intracellular glutathione levels
[2]; after treatment with 0.4 mM sulfasalazine or (S)-4-CPG, GSHest 1 mM
  D-54MG glioma cell growth on coincubation: completely restored D-54MG glioma cell growth

## N[C@H](C(=O)O)c1ccc(C(=O)O)cc1 [(S)-4-CPG, (S)-4-carboxyphenylglycine]
caspase-3
  activated form of caspase-3: increased the activated form of caspase-3
Glioma cells [3]; 0.5 mM, continued presence over a 5 d period (FIG. 5E)
  glioma cells died: 60%
[6]
  growth of primary astrocyte cultures: negligible impact; also recorded: Neither (S)-4-CPG (FIG. 3C) nor sulfasalazine (data not shown) affected
D-54MG glioma cells [7]
  incorporation of BrdU, immunocytochemistry: virtually abolished incorporation of BrdU
D-54MG glioma cells [8]
  cell population positive for chromosomal DNA fragmentation: 17%
Glioma cells [9]
  cell cycle distribution (total DNA content): a reduction of cells in G2 phase and an increase in cells in S phase
D-54MG glioma cells [4]; 0.25 mM, within 48 hours, D-54MG (FIG. 4A)
  reduction of incorporation of BrdU into chromosomal DNA: 50%
D-54MG glioma cells [4]; 0.5 mM, D-54MG (FIG. 4A)
  reduction of BrdU incorporation relative to 0.25 mM: somewhat larger reduction
[10]
  survival/growth of cortical neuronal cultures: negligible impact; also recorded: Neither (S)-4-CPG (FIG. 3C) nor sulfasalazine (data not shown) affected
Glioma cells [5]; 0.25 mM, glioma cells D-54MG, U-87MG, U-251MG and primary glioma culture GBM64 (FIG. 2F)
  intracellular glutathione concentration: depleted intracellular glutathione concentration
[2]; 5 days, 0.1 and 0.25 mM (S)-4-CPG, 0.25 and 0.5 mM sulfasalazine, all glioma cell lines and GBM62 (FIGS. 3A, 3B)
  growth of glioma cells: dose-dependent growth inhibitions

## N[C@@H](CCC(=O)O)C(=O)O [glutamate]
System Xc
  competitive inhibition of cystine uptake compared with both drugs: comparable
Glioma cells [5]; L-glutamate with system Xc inhibitor (FIG. 3D)
  restoration of intracellular glutathione levels: failed to restore intracellular glutathione levels
[2]; 1 mM glutamate with 0.25 mM (S)-4-CPG (FIG. 3D)
  reversal of growth inhibition by (S)-4-CPG: failed to overcome the inhibitory effect
